We go through one molecule from publication PMC8780741, “Integration of In Silico, In Vitro and In Situ Tools for the Preformulation and Characterization of a Novel Cardio-Neuroprotective Compound during the Early Stages of Drug Development” (Pharmaceutics, 2022).

Data set [1] can be described thus: Apparent permeability across Caco-2 monolayers. The format is in vitro ADME. Conditions: human. The method, then: (§1) MDCK (Madin–Darby Canine Kidney) cells, their transfected clone MDCK-MDR1, and Caco-2 cells were grown in the modified Dulbecco Eagle medium added with L-glutamine, fetal bovine serum and penicillin−streptomycin. The number of cells seeded in transwells with a surface area of 4.2 cm^2 depended on the cell line: 250,000 cells/cm^2 for MDCK and Caco-2 and 150,000 cells/cm^2 for MDCK-MDR1. Experiments were performed between 7 and 9 days for MDCK and MDCK-MDR1 and between 19 and 21 for Caco-2 cells after seeding. Prior to drug placement, cell monolayer integrity was assessed by measuring transepithelial electrical resistance (TEER). Transport studies were performed on an orbital shaker at 37 °C and 50 rpm. Four samples of 200 μL were taken from the receptor side at 0, 15, 30, 60 and 90 min, and two samples from the donor compartment at the beginning and end of the experiment. A standard experiment was performed with the same buffer for the apical and basolateral compartments in the apical to basolateral (A-B) and basolateral to apical (B-A) directions. The drug concentration was 100 μM in all experiments and samples were analyzed immediately by HPLC. The retention time was 2.3 min at maximum wavelengths (λmax = 260 nm). The conditions used for HPLC analyses were: mobile phase composed of a mixture of 50% H2O (95% H2O + 0.5% trifluoroacetic) and another 50% HPLC-grade methanol. The stationary phase composed of a Phenomenex® KJ0-4282 column, with two 2 μm filters filled with C-18 microparticles of 40 μm size and a Nova Pak C-18 stainless-steel column of 150 mm length. […] The lower limit of quantitation of JM-20 was adequate to interpolate the values obtained in the samples.
The apparent permeability coefficient was calculated according to the following Equation (2):(2) Creceiver,t=Qtotal/Vreceiver+Vdonor+Creceiver,t−1·f−Qtotal/Vreceiver+Vdonor·e^−Peff0,1·S·1/Vreceiver+1/Vdonor·Δt where Creceiver,t is the concentration of the drug in the receiver compartment at the time t, Qtotal is the total amount of drug in receiver and donor chambers, Vreceiver and Vdonor are the volumes of receiver and donor chamber, respectively, Creceiver,t−1 is the concentration of the drug in receiver compartment at the previous time, f is the replacement dilution factor of the sample, S is the surface area of the monolayer, Δt is the time interval and Peff is the coefficient of permeability, as was described by Mangas-Sanjuan et al. All calculations were developed in Microsoft® Excel (2018).

On the set-up of data set [2]: method as in earlier work. Conditions: potentiometric titration; cited from earlier work.
Data set [3] has as its target T1, P-glycoprotein transporter (MDR1) (Homo sapiens, UniProt P08183).
T1 construct: expressed in transfected cells; host or cells: MDCK-MDR1 (transfected clone of Madin-Darby Canine Kidney cells)
Nature of the data set: P-glycoprotein substrate assessment (B-A permeability MDCK-MDR1 vs MDCK). It is filed as in vitro ADME. Conditions: B-A permeability higher in MDCK-MDR1 than in MDCK (p < 0.05). Here is the method:
as §1, with “nm).” for “nm). The conditions used for HPLC analyses were: mobile phase composed of a mixture of 50% H2O (95% H2O + 0.5% trifluoroacetic) and another 50% HPLC-grade methanol. The stationary phase composed of a Phenomenex® KJ0-4282 column, with two 2 μm filters filled with C-18 microparticles of 40 μm size and a Nova Pak C-18 stainless-steel column of 150 mm length.”, “samples. […]” for “samples.”

A short description of data set [4]: Human oral fraction absorbed estimated from rat intestinal permeability. Conditions: calculated from rat permeability values in all segments (whole small intestine). An excerpt:
The permeability values obtained in the different intestinal sections (See Table 4) corroborate the results obtained in the cell lines. […] This supports that if a compound has a high absorbed dose fraction, it will have a high-permeability, not necessarily in the jejunum, but somewhere along the relevant intestinal absortive regions. Correlations between permeability values in the rat small intestine (whole or segments) obtained by Doluisio’s method and their correlation with the orally absorbed fraction in humans were previously published. In fact, Fabs can be calculated considering the permeability values in all segments (whole small intestine) and the estimated oral absorbed fraction was 85.12%. According to this property, the drug may be a good candidate to be formulated for oral administration.

Data set [5] can be described thus: Dissociation constant (pKa) by UV-spectrophotometric method. The following applies: aqueous buffer solutions. It is filed as physicochemical. Here is the method: The pH measurements were performed using a sensiON™ (PH31) pH meter. Standard solutions of JM-20 ([…] were prepared adding 0.2 mL of the stock solution in 9.8 mL of each buffer. UV-VIS spectra were recorded on a UV-Vis Spectrophotometer (Thermo Fisher GENESYS™ 10S, Shanghai, China) between 200 and 400 nm (2 nm of resolution). All spectrophotometric data were processed in Microsoft Excel (2018).
The experimental pKa was determined using the spectrophotometric method proposed by Salgado et al.. The absorbance spectra of the JM-20 were acquired at different pH levels. The wavelengths of maximum absorbance were determined at each pH. Using a plot of observed absorbance versus pH at these analytical wavelengths (262, 316 and 355 nm), the pKa values were calculated. To determine these points, the linear equations of the two points closest to the crossing at each curve were solved. The whole procedure was carried out in triplicate and at room temperature (23 ± 2 °C).

A short description of data set [6]: Provisional BCS classification. On the set-up: key: drugs with high solubility/high permeability (Class 1); drugs with low solubility/high permeability (Class 2); drugs with high solubility/low permeability (Class 3); drugs with low solubility/low permeability (Class 4). An excerpt:
The Biopharmaceutics Classification System (BCS) is a widely used scientific framework for waiver of in vivo bioequivalence studies, as well as for decision-making in drug discovery and development. This tool classifies drug substances according to solubility/dosage and permeability values as follows: drugs with high solubility/high permeability (Class 1), drugs with low solubility/high permeability (Class 2), drugs with high solubility/low permeability (Class 3) and drugs with low solubility/low permeability (Class 4). BCS has proven to be a very important tool for the identification of compounds whose solubility and absorption characteristics may be sensitive to physiological and formulation variables, allowing early optimization in the preformulation stages from the knowledge of the physicochemical properties of the active pharmaceutical ingredient (API). In this sense, it is evident that new compounds with low permeability and solubility/dissolution will have low and highly variable oral bioavailability, which may limit the chances of developing a clinically useful product.
Different provisional biopharmaceutical classification systems have been described in the literature. They mainly use alternative methodologies to predict intestinal permeability. Following the proposal of Kasim et al., JM-20 is a BCS Class 2, based on the aqueous solubility value at room temperature and in silico partition coefficients (log P and ClogP). JM-20 is also classified as BCS class 2 compound by the method proposed by Pham-The et al. where a provisional biopharmaceutical classification was developed based on solubility data (dose number, Do) and predicted or measured permeability in Caco-2 cells. At the same time, permeability values of JM-20 obtained with in vitro cell lines and in situ perfusion in rat were considered for the biopharmaceutical classification of this compound.

Where two headings read alike, the source gives them in different places.

T1 sequence (P08183 whole entry): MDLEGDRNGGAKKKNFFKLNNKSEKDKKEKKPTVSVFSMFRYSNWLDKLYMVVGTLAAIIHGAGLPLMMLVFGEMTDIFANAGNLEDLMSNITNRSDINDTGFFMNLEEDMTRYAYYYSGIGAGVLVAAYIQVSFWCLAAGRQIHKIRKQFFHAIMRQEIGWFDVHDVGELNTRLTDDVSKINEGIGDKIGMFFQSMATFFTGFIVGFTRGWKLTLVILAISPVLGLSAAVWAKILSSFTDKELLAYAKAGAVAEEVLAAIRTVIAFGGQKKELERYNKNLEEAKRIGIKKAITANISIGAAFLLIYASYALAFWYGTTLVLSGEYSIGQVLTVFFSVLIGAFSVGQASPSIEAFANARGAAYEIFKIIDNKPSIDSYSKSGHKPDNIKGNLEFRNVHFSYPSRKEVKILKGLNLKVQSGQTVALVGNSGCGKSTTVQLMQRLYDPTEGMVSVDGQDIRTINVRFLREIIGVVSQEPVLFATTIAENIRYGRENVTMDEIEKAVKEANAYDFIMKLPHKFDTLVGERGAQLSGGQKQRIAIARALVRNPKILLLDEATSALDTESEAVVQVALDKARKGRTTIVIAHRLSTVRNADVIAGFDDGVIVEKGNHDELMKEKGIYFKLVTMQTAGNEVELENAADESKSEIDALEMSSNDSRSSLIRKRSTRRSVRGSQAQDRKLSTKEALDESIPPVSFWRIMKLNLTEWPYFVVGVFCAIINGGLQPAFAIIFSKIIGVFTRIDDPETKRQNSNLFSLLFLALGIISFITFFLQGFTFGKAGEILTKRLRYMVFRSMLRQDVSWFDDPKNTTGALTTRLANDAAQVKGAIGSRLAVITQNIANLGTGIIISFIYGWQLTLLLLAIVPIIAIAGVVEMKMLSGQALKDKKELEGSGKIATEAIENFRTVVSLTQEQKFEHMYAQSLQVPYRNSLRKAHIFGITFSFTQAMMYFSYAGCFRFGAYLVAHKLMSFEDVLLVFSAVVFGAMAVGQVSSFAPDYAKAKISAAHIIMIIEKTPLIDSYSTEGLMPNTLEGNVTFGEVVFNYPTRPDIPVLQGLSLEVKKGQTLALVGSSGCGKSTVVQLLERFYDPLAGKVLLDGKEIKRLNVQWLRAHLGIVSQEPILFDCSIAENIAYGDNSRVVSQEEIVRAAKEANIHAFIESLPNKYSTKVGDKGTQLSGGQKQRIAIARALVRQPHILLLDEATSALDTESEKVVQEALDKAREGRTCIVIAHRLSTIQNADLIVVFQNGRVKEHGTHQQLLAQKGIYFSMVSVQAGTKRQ

In general, Papp A→B refers to how fast a substance crosses the layer from the apical side. The Papp B→A is the apparent permeability from the basolateral to the apical side of a cell layer. What is called efflux ratio is the permeability from basolateral to apical divided by that in the opposite direction, in the common usage. For the molecule `CCOC(=O)C1=C(C)NC2=C(C=Nc3ccccc3N2)C1c1ccccc1[N+](=O)[O-]` (stereo not drawn) [JM-20, 3-ethoxycarbonyl-2-methyl-4-(2-nitrophenyl)-4,11-dihydro-1H-pyrido [2,3-b][1,5] benzodiazepine], the Papp A→B at 90 min, 100 µM in data set [1] (Caco-2, Caco-2, 100 μM, 37 °C, stirring at 50 rpm) came out at 38.3 ± 1.8 ×10⁻⁶ cm/s. The Papp at 90 min, 100 µM in data set [1] (Caco-2, read-out: Permeability, Caco-2 value (abstract)) worked out at 38 ×10⁻⁶ cm/s. Further, in data set [1] (Caco-2, 100 μM, 37 °C, stirring at 50 rpm), the Papp B→A at 90 min, 100 µM turned out to be 8.5 ± 2.4 ×10⁻⁶ cm/s. Also, the efflux ratio at 90 min, 100 µM in data set [1] (Caco-2 bidirectional transport) was determined as 0.13. The pKa in data set [2] is 5.25; in data set [5] (pH 2 to 12, UV-spectrophotometric, 23 °C, ionic strength approximately 0.1 M, read-out: pKa1 (base)) it was 5.48 ± 0.19; in data set [5] (pH 2 to 12, UV-spectrophotometric, 23 °C, ionic strength approximately 0.1 M, read-out: pKa2 (acid)), 10.5 ± 0.17; in data set [5] (pH 2 to 12, measured pKa transformed to 37 °C (estimated), read-out: pKa1 at 37 °C), 5.54; in data set [5] (pH 2 to 12, measured pKa transformed to 37 °C (estimated), read-out: pKa2 at 37 °C), 10.3. In addition, the “Substrate of the P-glycoprotein transporter (MDR1)” value in data set [3] is listed as “substrate of the P-glycoprotein transporter (MDR1)”. Also, the “Estimated oral absorbed fraction (Fabs) in humans” value in data set [4] is reported as 85.12%. In data set [6] (BCS class from dose number and Caco-2 permeability), this molecule came in with a BCSCaco-2 of 2. Moreover, the BCSMDCK in data set [6] (BCS class from dose number and MDCK permeability) worked out at 2. Also, the BCSrat in data set [6] (BCS class from dose number and rat in situ permeability) is recorded as 2. In data set [6] (overall provisional BCS class), this molecule showed a BCSGlobal of 2.
